Reference: paper PMC9501633, “Synthesis, Characterisation and Mechanism of Action of Anticancer 3-Fluoroazetidin-2-ones” (Pharmaceuticals, 2022)

How the values were obtained:
Assay type in all cases: cell-based, human
A498 = test: NCI 60 cell line screen, Renal; details: one dose 10 µM
HCT-116 = test: NCI 60 cell line screen, Colon; details: one dose 10 µM
MDA-MB-435 = test: NCI 60 cell line screen, Melanoma; details: one dose 10 µM
SNB-19 = test: NCI 60 cell line screen, CNS; details: one dose 10 µM
UACC-62 = test: NCI 60 cell line screen, Melanoma; details: one dose 10 µM
NCI-H522 = test: NCI 60 cell line screen, NSCLung; details: one dose 10 µM
HS 578T = test: NCI 60 cell line screen, Breast; details: one dose 10 µM
A549/A TCC = test: NCI 60 cell line screen, NSCLung; details: one dose 10 µM
OVCAR-5 = test: NCI 60 cell line screen, Ovarian; details: one dose 10 µM
ACHN = test: NCI 60 cell line screen, Renal; details: one dose 10 µM
RPMI-8226 = test: NCI 60 cell line screen, Leukaemia; details: one dose 10 µM
MDA-MB-468 = test: NCI 60 cell line screen, Breast; details: one dose 10 µM
786–0 = test: NCI 60 cell line screen, Renal; details: 786-0, one dose 10 µM
MOLT-4 = test: NCI 60 cell line screen, Leukaemia; details: one dose 10 µM
TK-10 = test: NCI 60 cell line screen, Renal; details: one dose 10 µM
IGROV1 = test: NCI 60 cell line screen, Ovarian
OVCAR-8 = test: NCI 60 cell line screen, Ovarian; details: one dose 10 µM
MCF7 = test: NCI 60 cell line screen, Breast; details: one dose 10 µM
LOX IMVI = test: NCI 60 cell line screen, Melanoma; details: one dose 10 µM
SW-620 = test: NCI 60 cell line screen, Colon; details: one dose 10 µM
NCI-H23 = test: NCI 60 cell line screen, NSCLung; details: one dose 10 µM
SNB-75 = test: NCI 60 cell line screen, CNS; details: one dose 10 µM
SF-295 = test: NCI 60 cell line screen, CNS; details: one dose 10 µM
MDA-MB-231/ATCC = test: NCI 60 cell line screen, Breast; details: one dose 10 µM

CCOc1ccc(C2N(c3cc(OC)c(OC)c(OC)c3)C(=O)C2(F)F)cc1 (stereo not shown) [Compound 37, 4-(4-Ethoxyphenyl)-3,3-difluoro-1-(3,4,5-trimethoxyphenyl)azetidin-2-one]
inhibition at 10 µM (A498; Homo sapiens): 7.7% | Growth % (A498): 92.3% | inhibition at 10 µM (HCT-116; Homo sapiens): 91.1% | Growth % (HCT-116): 8.92% | inhibition at 10 µM (MDA-MB-435; Homo sapiens): 83.2% | Growth % (MDA-MB-435): 16.83% | inhibition at 10 µM (SNB-19; Homo sapiens): 45.9% | Growth % (SNB-19): 54.14% | inhibition at 10 µM (UACC-62; Homo sapiens): 48.4% | Growth % (UACC-62): 51.61% | inhibition at 10 µM (NCI-H522; Homo sapiens): 80.7% | Growth % (NCI-H522): 19.28% | inhibition at 10 µM (HS 578T; Homo sapiens): 62.6% | Growth % (HS 578T): 37.42% | inhibition at 10 µM (A549/A TCC; Homo sapiens): 66.4% | Growth % (A549/A TCC): 33.56% | inhibition at 10 µM (OVCAR-5; Homo sapiens): 33.5% | Growth % (OVCAR-5): 66.47% | inhibition at 10 µM (ACHN; Homo sapiens): 44.8% | Growth % (ACHN): 55.25% | inhibition at 10 µM (RPMI-8226; Homo sapiens): 85.4% | Growth % (RPMI-8226): 14.64% | inhibition at 10 µM (MDA-MB-468; Homo sapiens): 65.1% | Growth % (MDA-MB-468): 34.89% | Growth % (786–0): 64.68% | inhibition at 10 µM (786–0; Homo sapiens): 35.3% | inhibition at 10 µM (MOLT-4; Homo sapiens): 81.9% | Growth % (MOLT-4): 18.14% | inhibition at 10 µM (TK-10; Homo sapiens): -3.32% | Growth % (TK-10): 103.32% | inhibition at 10 µM (IGROV1; Homo sapiens, IGROV-1, one dose 10 µM): 62.2% | Growth % (IGROV1; one dose 10 µM): 37.8% | inhibition at 10 µM (OVCAR-8; Homo sapiens): 56.8% | Growth % (OVCAR-8): 43.23% | inhibition at 10 µM (MCF7; Homo sapiens, MCF7, MCF7): 82.8% | Growth % (MCF7; MCF7): 17.19% | Inhibition % (MCF7; MCF7): 82.8% | inhibition at 10 µM (LOX IMVI; Homo sapiens): 72.4% | Growth % (LOX IMVI): 27.57% | inhibition at 10 µM (SW-620; Homo sapiens): 74.5% | Growth % (SW-620): 25.47% | inhibition at 10 µM (NCI-H23; Homo sapiens): 66.4% | Growth % (NCI-H23): 33.57% | inhibition at 10 µM (SNB-75; Homo sapiens): 44.1% | Growth % (SNB-75): 55.93% | inhibition at 10 µM (SF-295; Homo sapiens): 43.7% | Growth % (SF-295): 56.32% | inhibition at 10 µM (MDA-MB-231/ATCC; Homo sapiens): 53.9% | Growth % (MDA-MB-231/ATCC): 46.12%
